Measurements taken from PubChem BioAssay AID248 (DTP/NCI, 2004).
“And” between values parts separate entries of the source, which are not always exact repeats. Identical values can stand only once. Inconclusive results and toxic doses are left out. Rule as the data show it: active = T/C of 150% or more; inactive = T/C below 125%.

Tested on: L1210 leukemia ip in BDF1 mice, survival T/C
Experiment: NCI In Vivo Anticancer Drug Screen. Data for tumor model L1210 Leukemia (intraperitoneal) in B6D2F1 (BDF1) mice
Settings: endpoint: mean survival time, higher = longer survival
Outline: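 Value reflects the ratio of survival in compound-treated mice to survival in vehicle-treated controls, with both groups carrying the same transplanted tumor.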

[1] = dose: 100.0 mg/kg/injection, schedule: Q01DX001 (ip), vehicle: saline with Tween-80
[2] = dose: 200.0 mg/kg/injection, schedule: Q01DX001 (ip), vehicle: saline with Tween-80
[3] = dose: 400.0 mg/kg/injection, schedule: Q01DX001 (ip), vehicle: saline with Tween-80
[4] = dose: 50.0 mg/kg/injection, schedule: Q01DX001 (ip), vehicle: saline
[5] = dose: 100.0 mg/kg/injection, schedule: Q01DX001 (ip), vehicle: saline
[6] = dose: 200.0 mg/kg/injection, schedule: Q01DX001 (ip), vehicle: saline
[7] = dose: 100.0 mg/kg/injection, schedule: Q01DX009 (ip), vehicle: Klucel (hydroxypropylcellulose) (HPC)
[8] = dose: 100.0 mg/kg/injection, schedule: Q04DX003 (ip), vehicle: Klucel (hydroxypropylcellulose) (HPC)
[9] = dose: 200.0 mg/kg/injection, schedule: Q01DX009 (ip), vehicle: Klucel (hydroxypropylcellulose) (HPC)
[10] = dose: 200.0 mg/kg/injection, schedule: Q04DX003 (ip), vehicle: Klucel (hydroxypropylcellulose) (HPC)
[11] = dose: 400.0 mg/kg/injection, schedule: Q04DX003 (ip), vehicle: Klucel (hydroxypropylcellulose) (HPC)
[12] = dose: 12.5 mg/kg/injection, schedule: Q01DX009 (ip), vehicle: saline
[13] = dose: 12.5 mg/kg/injection, schedule: Q04DX003 (ip), vehicle: saline
[14] = dose: 25.0 mg/kg/injection, schedule: Q04DX003 (ip), vehicle: saline
[15] = dose: 50.0 mg/kg/injection, schedule: Q04DX003 (ip), vehicle: saline
[16] = dose: 100.0 mg/kg/injection, schedule: Q01DX001 (ip), vehicle: other
[17] = dose: 200.0 mg/kg/injection, schedule: Q01DX001 (ip), vehicle: other
[18] = dose: 400.0 mg/kg/injection, schedule: Q01DX001 (ip), vehicle: other

Measured: T/C

O=C(Nc1ccc(Cl)c(Cl)c1)SCCSC(=O)Nc1ccc(Cl)c(Cl)c1
inactive: [1] 107 % of control | [2] 92 % of control | [3] 93 % of control

CCc1nc(N[N+](=O)[O-])nc(N)c1-c1ccccc1O
inactive: dose: 50.0 mg/kg/injection, schedule: Q04DX002 (ip), vehicle: Klucel (hydroxypropylcellulose) (HPC) 97 % of control | dose: 100.0 mg/kg/injection, schedule: Q04DX002 (ip), vehicle: Klucel (hydroxypropylcellulose) (HPC) 93 % of control and 111 % of control | dose: 200.0 mg/kg/injection, schedule: Q04DX002 (ip), vehicle: Klucel (hydroxypropylcellulose) (HPC) 97 % of control | dose: 400.0 mg/kg/injection, schedule: Q04DX002 (ip), vehicle: Klucel (hydroxypropylcellulose) (HPC) 90 % of control

O=C(O)CC(C(=O)O)c1ccccc1O (centres undefined)
inactive: dose: 25.0 mg/kg/injection, schedule: Q04DX003 (ip), vehicle: Klucel (hydroxypropylcellulose) (HPC) 95 % of control | [4] 100 % of control | dose: 50.0 mg/kg/injection, schedule: Q04DX003 (ip), vehicle: Klucel (hydroxypropylcellulose) (HPC) 93 % of control | [5] 96 % of control | [6] 90 % of control

COc1ccc(OC)c(C2=CCCCCC2)c1OC
inactive: dose: 100.0 mg/kg/injection, schedule: Q01DX009 (ip), vehicle: saline with Tween-80 95 % of control | dose: 200.0 mg/kg/injection, schedule: Q01DX009 (ip), vehicle: saline with Tween-80 106 % of control | dose: 400.0 mg/kg/injection, schedule: Q01DX009 (ip), vehicle: saline with Tween-80 100 % of control

O=[N+]([O-])c1ccc(S(=O)c2ccc([N+](=O)[O-])cc2)cc1
inactive: [7] 108 % of control | [8] 98 % of control | [9] 95 % of control | [10] 98 % of control | dose: 400.0 mg/kg/injection, schedule: Q01DX009 (ip), vehicle: Klucel (hydroxypropylcellulose) (HPC) 101 % of control | [11] 93 % of control

NNC12CC3CC(CC(C3)C1)C2
inactive: dose: 1.56 mg/kg/injection, schedule: Q01DX009 (ip), vehicle: saline 100 % of control | dose: 3.12 mg/kg/injection, schedule: Q01DX009 (ip), vehicle: saline 100 % of control | dose: 6.25 mg/kg/injection, schedule: Q01DX009 (ip), vehicle: saline 100 % of control | [12] 110 % of control and 90 % of control | [13] 105 % of control | [14] 118 % of control | [15] 96 % of control

O=C(OCCCCCCCCOC(=O)c1cccc([N+](=O)[O-])c1)c1cccc([N+](=O)[O-])c1
inactive: [16] 102 % of control | [17] 101 % of control | [18] 96 % of control

O=C(O)c1cc2oc3ccccc3c2cc1O
inactive: [7] 94 % of control | [8] 98 % of control | [9] 100 % of control | [10] 95 % of control | [11] 93 % of control

CC1(C)OCC(N)(CO)CO1
inactive: dose: 100.0 mg/kg/injection, schedule: Q01DX005 (ip), vehicle: water 105 % of control | dose: 100.0 mg/kg/injection, schedule: Q04DX003 (ip), vehicle: water 109 % of control | dose: 200.0 mg/kg/injection, schedule: Q01DX005 (ip), vehicle: water 107 % of control | dose: 200.0 mg/kg/injection, schedule: Q04DX003 (ip), vehicle: water 108 % of control | dose: 400.0 mg/kg/injection, schedule: Q01DX005 (ip), vehicle: water 97 % of control | dose: 400.0 mg/kg/injection, schedule: Q04DX003 (ip), vehicle: water 98 % of control

O=C1C2=C(CCCC2)C(=O)c2ccccc21
inactive: [4] 93 % of control | [5] 100 % of control | [6] 96 % of control | dose: 400.0 mg/kg/injection, schedule: Q01DX001 (ip), vehicle: saline 102 % of control

Cc1c([N+](=O)[O-])cc(C(=O)c2ccccc2C(=O)O)cc1[N+](=O)[O-]
inactive: dose: 75.0 mg/kg/injection, schedule: Q04DX003 (ip), vehicle: Klucel (hydroxypropylcellulose) (HPC) 98 % of control | dose: 150.0 mg/kg/injection, schedule: Q04DX003 (ip), vehicle: Klucel (hydroxypropylcellulose) (HPC) 91 % of control | dose: 300.0 mg/kg/injection, schedule: Q04DX003 (ip), vehicle: Klucel (hydroxypropylcellulose) (HPC) 91 % of control

Nc1nc(N)nc(CCN2CCCCC2)n1
inactive: dose: 6.25 mg/kg/injection, schedule: Q01DX001 (ip), vehicle: saline with Tween-80 94 % of control | dose: 12.5 mg/kg/injection, schedule: Q01DX001 (ip), vehicle: saline with Tween-80 102 % of control | dose: 25.0 mg/kg/injection, schedule: Q01DX001 (ip), vehicle: saline with Tween-80 102 % of control

N=C(N=C(N)N)N(Cc1ccccc1)Cc1ccccc1
inactive: dose: 6.25 mg/kg/injection, schedule: Q01DX009 (ip), vehicle: water 103 % of control | dose: 6.25 mg/kg/injection, schedule: Q04DX003 (ip), vehicle: water 97 % of control | dose: 12.5 mg/kg/injection, schedule: Q01DX001 (ip), vehicle: water 107 % of control | dose: 12.5 mg/kg/injection, schedule: Q01DX009 (ip), vehicle: water 101 % of control | dose: 12.5 mg/kg/injection, schedule: Q04DX003 (ip), vehicle: water 103 % of control | dose: 25.0 mg/kg/injection, schedule: Q01DX001 (ip), vehicle: water 100 % of control | dose: 25.0 mg/kg/injection, schedule: Q01DX009 (ip), vehicle: water 101 % of control | dose: 25.0 mg/kg/injection, schedule: Q04DX003 (ip), vehicle: water 96 % of control

O=C1OC2(CCCCC2)c2ccccc21
inactive: [8] 105 % of control | [10] 95 % of control | [11] 105 % of control

CC1(C)Cc2c(OC(N)=O)cccc2O1
inactive: dose: 25.0 mg/kg/injection, schedule: Q01DX001 (ip), vehicle: Klucel (hydroxypropylcellulose) (HPC) 102 % of control | dose: 50.0 mg/kg/injection, schedule: Q01DX001 (ip), vehicle: Klucel (hydroxypropylcellulose) (HPC) 98 % of control

OCCN1CCN(CC/C=C2/c3ccccc3Sc3ccc(Cl)cc32)CC1
inactive: dose: 6.25 mg/kg/injection, schedule: Q01DX001 (ip), vehicle: saline 96 % of control | dose: 8.0 mg/kg/injection, schedule: Q01DX015 (ip), vehicle: saline 107 % of control | dose: 12.5 mg/kg/injection, schedule: Q01DX001 (ip), vehicle: saline 102 % of control | [12] 108 % of control | dose: 25.0 mg/kg/injection, schedule: Q01DX001 (ip), vehicle: saline 98 % of control and 122 % of control | dose: 25.0 mg/kg/injection, schedule: Q01DX009 (ip), vehicle: saline 116 % of control | [14] 110 % of control | dose: 37.5 mg/kg/injection, schedule: Q01DX001 (ip), vehicle: saline 101 % of control | [4] 113 % of control | [15] 116 % of control | dose: 75.0 mg/kg/injection, schedule: Q01DX001 (ip), vehicle: saline 102 % of control and 120 % of control | [5] 100 % of control

Cc1c([N+](=O)[O-])ccc2ccccc12
inactive: [16] 103 % of control | [8] 108 % of control | [17] 98 % of control | [10] 101 % of control | [18] 103 % of control | [11] 100 % of control

CNCCO
inactive: dose: 100.0 mg/kg/injection, schedule: Q01DX009 (ip), vehicle: saline 97 % of control | dose: 100.0 mg/kg/injection, schedule: Q04DX003 (ip), vehicle: saline 96 % of control | dose: 200.0 mg/kg/injection, schedule: Q01DX009 (ip), vehicle: saline 92 % of control | dose: 200.0 mg/kg/injection, schedule: Q04DX003 (ip), vehicle: saline 98 % of control | dose: 400.0 mg/kg/injection, schedule: Q01DX009 (ip), vehicle: saline 97 % of control | dose: 400.0 mg/kg/injection, schedule: Q04DX003 (ip), vehicle: saline 102 % of control

Cc1cc[n+](Cc2ccccc2)cc1
inactive: [13] 96 % of control | [14] 90 % of control

O=C(O)C(CCCCC1CCCCC1)CCC1CCCCC1 (centres undefined)
inactive: [1] 97 % of control | [2] 99 % of control | [3] 94 % of control
